Assay type in all cases: cell-based
For assay [1], the system named is Phytophthora infestans. The note with it: active compound alone, 7 days after inoculation.
For assay [2], the system named is Botrytis cinerea. The assay can be described thus: Activity against grey mold caused by Botrytis cinerea in the microtiterplate test (Botrici).
The test system of assay [3] is Septoria tritici. The assay can be described thus: Activity against leaf blotch on wheat caused by Septoria tritici, microtiter test (Septtr). The note with it: active compound alone, 7 days after inoculation.
Assay [4] has as its system Pyricularia oryzae. The following applies: active compound alone, 7 days after inoculation.
[5] abbreviates: Botrytis cinerea, 168 h, active compound alone, 4 ppm, 7 days after inoculation, read-out: Observed efficacy.
[6] abbreviates: Botrytis cinerea, 168 h, active compound alone, 1 ppm, 7 days after inoculation, read-out: Observed efficacy.

Like-named read-outs stand apart in the source and are kept apart here.

Turning to `Fc1ccc([C@]2(Cn3cncn3)O[C@H]2c2ccccc2Cl)cc1` (racemic) [Epoxiconazole, (2RS,3SR)-1-[3-(2-chlorophenyl)-2,3-epoxy-2-(4-fluorophenyl)propyl]-1H-1,2,4-triazole], the figures for the Observed efficacy in assay [1] (0.25 ppm) and in assay [3] (0.016 ppm) were 12% and 14%, respectively. For the same molecule, in assay [2] (Botrytis cinerea, 168 h, active compound alone, 0.063 ppm, 7 days after inoculation, read-out: Observed efficacy), the inhibition of growth at 0.063 ppm stood at 4%.

In the case of `O=C(Nc1ccccc1-c1ccc(Cl)cc1)c1cccnc1Cl` [Boscalid, 2-chloro-N-(4′-chlorobiphenyl-2-yl)nicotinamide], the inhibition of growth at 4 ppm in assay [2] (setting [5]) stood at 45%.

Take `O=C1C2CC=CCC2C(=O)N1SC(Cl)(Cl)Cl` (stereo not shown) [Captan, 2-trichloromethylsulfanyl-3a,4,7,7a-tetrahydroisoindole-1,3-dione]: the Observed efficacy in assay [1] (1 ppm) is on record as 26%. For the same molecule, the inhibition of growth at 1 ppm in assay [2] (setting [6]) was 64%.

For the molecule `N#Cc1c(Cl)c(Cl)c(Cl)c(C#N)c1Cl` [Chlorothalonil, 2,4,5,6-tetrachloroisophthalonitrile], the Observed efficacy in assay [1] (0.25 ppm) was found to be 20%.

`Cc1ccc(-c2c(Cl)nc(C#N)n2S(=O)(=O)N(C)C)cc1` [Cyazofamid, 4-chloro-2-cyano-N,N-dimethyl-5-(4-methylphenyl)-1H-imidazole-1-sulfonamide]: in assay [2] (Botrytis cinerea, 168 h, active compound alone, 0.25 ppm, 7 days after inoculation, read-out: Observed efficacy), the inhibition of growth at 0.25 ppm was 0%.

As to `C=C(C(=O)OCc1cccc(C(F)(F)F)c1)C(O)c1cccnc1` (stereo not shown) [I.1, (3-trifluoromethylphenyl)methyl 2-[hydroxyl(pyridine-3-yl)methyl]acrylate], the Observed efficacy in assay [4] (0.016 ppm) was found to be 5%; in assay [1] (1 ppm), 1%; in assay [1] (4 ppm) it was 0%; in assay [1] (16 ppm) it was 42%; in assay [3] (0.016 ppm), 9%; in assay [3] (16 ppm) it was 47%. Further, the inhibition of growth at 4 ppm in assay [2] (setting [5]) was 5%.

With `O=C(OCc1cccc(C(F)(F)F)c1)C(=Cc1ccccc1)C(O)c1cccnc1` (stereo not shown) [I.3, (3-trifluoromethylphenyl)methyl 2-[hydroxyl(pyridine-3-yl)methyl]-3-phenylacrylate], the Observed efficacy in assay [4] (0.25 ppm) worked out at 2%; in assay [1] (1 ppm), 8%; in assay [1] (4 ppm), 10%; in assay [3] (0.063 ppm), 51%. Further, the inhibition of growth at 1 ppm in assay [2] (setting [6]) turned out to be 9%. Also, the inhibition of growth at 4 ppm in assay [2] (setting [5]) was found to be 16%.

Regarding `Cc1ccc(C(C)NC(=O)[C@@H](NC(=O)OC(C)C)C(C)C)cc1` (stereo partly drawn) [Iprovalicarb, isopropyl [(1S)-2-methyl-1-(1-p-tolylethylcarbamoyl)propyl]carbamate], in assay [2] (Botrytis cinerea, 168 h, read-out: Observed efficacy), the inhibition of growth at 1 ppm is 2%.

On to `COC=C(C(=O)OC)c1ccccc1COc1cccc(C(F)(F)F)n1` [Picoxystrobin, methyl 3-methoxy-2-[2-(6-trifluoromethylpyridin-2-yloxymethyl)phenyl]acrylate], for which the Observed efficacy in assay [4] (0.016 ppm) is 21%; in assay [1] (0.25 ppm), 66%.

On to `COC(=O)N(OC)c1ccccc1COc1ccn(-c2ccc(Cl)cc2)n1` [Pyraclostrobin, pyraclostrobin], for which the Observed efficacy was found to be 38% in assay [4] (0.001 ppm) and 21% in assay [3] (0.001 ppm).

As to `Cc1cc(C)nc(Nc2ccccc2)n1` [Pyrimethanil, 4,6-di-methylpyrimidin-2-ylphenylamine], the Observed efficacy in assay [3] (16 ppm) was 50%.

As to “zinc propylenebis(dithiocarbamate) polymer [Propineb]”, in assay [2] (active compound alone, 4 ppm, 7 days after inoculation), the Observed efficacy was 21%.

(Values after patent US20100273649A1, “Fungicidal Mixtures III” (BASF SE, priority 2007, published 2010).)
